{"source": "patent US20250222116A1", "about": "“PARP-1 DEGRADATION AGENT AND USE THEREOF” (XIZANG HAISCO PHARMACEUTICAL CO., LTD., priority 2021, published 2025)", "key": {"[1]": {"tested_on": "breast tumor cells MDA-MB-436", "assay": "MDA-MB-436 cell activity test (CellTiter-Glo, 7 days)", "assay_type": "cell-based, human", "conditions": "Homo sapiens", "outline": "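MDA-MB-436 cells in Leibovitz's L-15 + 10% FBS, 37° C. without CO2, seeded 4000 cells/well overnight, then treated with compound dilutions for 7 days. Viability by CellTiter-Glo luminescence; inhibition relative to solvent control and cell-free blank, IC50 from concentration-response.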"}, "[2]": {"target": "T1, PARP1 (Homo sapiens (Human), UniProt P09874)", "T1 sequence (P09874 whole entry)": "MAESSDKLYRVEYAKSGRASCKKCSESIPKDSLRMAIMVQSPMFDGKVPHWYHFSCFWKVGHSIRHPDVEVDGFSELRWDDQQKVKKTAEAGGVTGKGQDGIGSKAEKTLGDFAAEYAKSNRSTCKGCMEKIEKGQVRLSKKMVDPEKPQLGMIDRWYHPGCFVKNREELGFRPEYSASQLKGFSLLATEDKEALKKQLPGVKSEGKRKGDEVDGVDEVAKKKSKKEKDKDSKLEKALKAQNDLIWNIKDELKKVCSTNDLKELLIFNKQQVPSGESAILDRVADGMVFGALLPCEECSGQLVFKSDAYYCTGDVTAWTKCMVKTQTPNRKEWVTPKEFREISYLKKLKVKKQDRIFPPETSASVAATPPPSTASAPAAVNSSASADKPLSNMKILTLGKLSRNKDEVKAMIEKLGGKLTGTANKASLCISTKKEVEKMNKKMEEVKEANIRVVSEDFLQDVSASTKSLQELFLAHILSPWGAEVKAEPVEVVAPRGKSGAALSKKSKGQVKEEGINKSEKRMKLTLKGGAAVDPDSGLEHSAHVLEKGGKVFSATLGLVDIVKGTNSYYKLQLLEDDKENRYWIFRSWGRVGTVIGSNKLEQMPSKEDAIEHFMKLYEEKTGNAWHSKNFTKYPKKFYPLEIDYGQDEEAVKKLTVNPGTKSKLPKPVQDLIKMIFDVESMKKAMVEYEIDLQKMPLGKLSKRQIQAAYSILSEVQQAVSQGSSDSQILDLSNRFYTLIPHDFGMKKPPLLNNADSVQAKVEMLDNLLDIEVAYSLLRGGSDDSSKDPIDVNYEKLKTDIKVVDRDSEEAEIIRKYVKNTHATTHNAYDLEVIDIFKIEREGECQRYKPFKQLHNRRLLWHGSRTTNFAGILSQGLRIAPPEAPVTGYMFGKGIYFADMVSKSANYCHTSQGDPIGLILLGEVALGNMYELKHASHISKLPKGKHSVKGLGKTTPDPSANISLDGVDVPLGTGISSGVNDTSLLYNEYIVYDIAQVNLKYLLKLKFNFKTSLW", "assay": "PARP1 enzyme activity inhibition (chemiluminescence kit)", "assay_type": "biochemical", "procedure": "PARP1, PARP2 and PARP7 chemical […] detection kits were all purchased from BPS Bioscience. The histone solution in the kit was diluted 5× with 1×PBS, and 25 μL of the diluted histone solution was added to a microwell plate and incubated overnight at 4° C. After the incubation was completed, the plate was washed three times with PBST (0.05% Tween-20). 25 μL of a blocking solution was added to the microwell plate and incubated at 25° C. for 90 minutes. After the incubation was completed, the plate was washed three times with PBST. 2.5 μL of compounds at different concentrations diluted in test buffer and 5 μL of 2.5× substrate mixed solution were added to the microwell plate. PARP1, PARP2 and PARP7 enzymes were diluted to 0.33, 0.23 and 5.00 ng/μL, respectively, 5 μL of the diluent was added to the microwell plate, and the reaction system was incubated at 25° C. for 60 minutes. After the incubation was completed, the plate was washed three times with PBST. […] ELISA ECL substrate A and substrate B were mixed at a ratio of 1:1 (v/v), 25 μL of the mixture was added to the microwell plate, and the chemiluminescence value was read using a BMG microplate reader.\nCurve fitting was performed by four parameters (log(inhibitor) vs. response−Variable slope) using GraphPad Prism software, and the IC50 value was calculated."}, "[3]": {"target": "T1, PARP1", "assay": "PARP1 protein expression level in MDA-MB-231 cells", "assay_type": "cell-based", "conditions": "24 hours", "procedure": "The cells were collected into a 1.5 mL centrifuge tube, 25 μL of RIPA lysis buffer (containing 1× protease inhibitor cocktail) was added, and the cells were lysed on ice for 15 minutes and centrifuged at 12000 rpm/min at 4° C. for 10 minutes. The supernatant was collected and the protein content was determined using the BCA method. […] DC50 values were calculated using a four-parameter non-linear fitting model in Graphpad 8.3.0 software."}, "[4]": {"target": "PARP2 (Homo sapiens (Human), UniProt Q9UGN5)", "sequence (Q9UGN5 whole entry)": "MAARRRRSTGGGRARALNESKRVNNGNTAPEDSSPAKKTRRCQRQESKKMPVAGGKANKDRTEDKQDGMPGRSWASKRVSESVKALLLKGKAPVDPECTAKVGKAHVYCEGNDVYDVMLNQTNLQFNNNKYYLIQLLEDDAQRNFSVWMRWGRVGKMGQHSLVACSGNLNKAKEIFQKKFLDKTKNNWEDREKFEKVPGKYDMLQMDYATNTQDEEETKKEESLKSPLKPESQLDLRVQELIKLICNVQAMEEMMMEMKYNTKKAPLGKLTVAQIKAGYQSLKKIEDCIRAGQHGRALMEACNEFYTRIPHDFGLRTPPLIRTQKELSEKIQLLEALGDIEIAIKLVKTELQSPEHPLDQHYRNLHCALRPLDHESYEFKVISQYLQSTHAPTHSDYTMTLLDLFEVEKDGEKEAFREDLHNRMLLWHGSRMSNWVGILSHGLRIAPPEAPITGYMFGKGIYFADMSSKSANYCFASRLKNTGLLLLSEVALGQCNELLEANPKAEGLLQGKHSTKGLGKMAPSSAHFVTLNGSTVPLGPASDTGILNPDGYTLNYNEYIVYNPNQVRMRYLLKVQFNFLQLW", "assay": "PARP2 protein expression level in MDA-MB-231 cells", "assay_type": "cell-based", "procedure": "MDA-MB-231 cells were placed in a complete DMEM medium (supplemented with 10% FBS and 1% penicillin-streptomycin solution) and cultured at 37° C. and 5% CO2. The cells in the logarithmic growth phase were collected, the cell density was adjusted to 5×10^5 cells/well with the culture medium, and the cells were added to a 6-well cell culture plate at a volume of 1 mL/well, and cultured overnight in a 37° C., 5% CO2 incubator. On day 2, the compound to be tested was prepared to 2-fold the final concentration, 1 mL of the compounds at different concentrations were added to administration wells and a medium containing 0.2% DMSO was added to control wells, and the plate was incubated for 24 hours at 37° C. and 5% CO2. […] The supernatant was collected and the protein content was determined using the BCA method. The protein sample to be tested was diluted to 2 mg/mL, PARP2 was detected using a fully automated protein expression quantitative analyzer (ProteinSimple), and the internal reference protein was 3-actin (both antibodies were from CST). The software (Compass for SW) of the fully automated protein expression quantitative analyzer was used to process the raw data and calculate the peak area and the PARP2 expression rate relative to the control group. DC50 values were calculated using a four-parameter non-linear fitting model in Graphpad 8.3.0 software."}, "[5]": {"tested_on": "Human breast cancer MDA-MB-436 cells", "assay": "Mouse MDA-MB-436 subcutaneous in vivo transplanted tumor model", "conditions": "for TGI: after 28 days of administration", "procedure": "Human breast cancer MDA-MB-436 cells were placed in Leibovitz's L-15 medium (supplemented with 10 μg/mL insulin, 16 μg/mL glutathione, 10% fetal bovine serum and 1% penicillin-streptomycin solution) and cultured at 37° C. Conventional digestion treatment with trypsin was performed twice a week for passage. When the cell saturation was 80%-90%, and the number reached the requirement, the cells were harvested, counted, and inoculated. BALB/c nude mice (from Beijing Vital River Laboratory Animal Technology Co., Ltd.) were subcutaneously inoculated with 0.2 mL (10×10^6) of MDA-MB-436 cells (plus matrigel, with the volume ratio of 1:1) on the right back. When the average tumor volume reached about 180 mm^3, grouping and administration were performed (marked as Day 0). The solvent group was given 5% DMSO, 30% PEG400 and 65% of 20% sulfobutyl-β-cyclodextrin solution, and the administration group was given 1 or 10 mg/kg compound 10. The administration frequency was once a day, the administration cycle was 29 days, and the drug withdrawal observation period was set to 14 days. After grouping, the tumor diameter was measured twice a week with a vernier caliper. The formula for calculating the tumor volume was: V=0.5×a×b^2, where a and b represented the long and short diameters of the tumor, respectively. […] The tumor growth curve and the animal body weight change curve were as shown in FIG. 1 and FIG. 2, respectively."}}, "data": [{"smiles": "CCc1cc2ncc(CN3CCN(c4ccc(C(=O)NC5CCN(c6ccc7c(c6)C(=O)N(C6CCC(=O)NC6=O)C7=O)CC5)nc4)CC3)cc2[nH]c1=O", "note": "(centres unmarked) [Compound 10, N-(1-(2-(2,6-dioxopiperidin-3-yl)-1,3-dioxoisoindolin-5-yl)piperidin-4-yl)-5-(4-((7-ethyl-6-oxo-5,6-dihydro-1,5-naphthyridin-3-yl)methyl)piperazin-1-yl)picolinamide]", "values": [{"measurement": "IC50", "setting": "[1]; MDA-MB-436, 168 h, MDA-MB-436 cells, 7 days incubation, read-out: IC50 (nM), MDA-MB-436 cell inhibitory activity", "value": 36, "unit": "nM"}, {"measurement": "inhibition at 10 µM", "setting": "[1]; MDA-MB-436, MDA-MB-436 cells, 10 μM, read-out: Max inh. % 10 μM", "value": 99.8, "unit": "%"}, {"measurement": "IC50", "setting": "[2]; PARP1 enzyme", "value": 0.32, "unit": "nM"}, {"measurement": "PARP1 inhibitory selectivity over PARP2 and PARP7", "setting": "[2]; enzyme activities in vitro", "value": "good PARP1 inhibitory selectivity"}, {"measurement": "DC50", "setting": "[3]", "value": 0.12, "unit": "nM"}, {"measurement": "PARP1 degradation selectivity over PARP2", "setting": "[4]", "value": "good PARP1 degradation selectivity"}, {"measurement": "DC50", "setting": "[4]; 24 hours", "value": "> 5", "unit": "nM"}, {"measurement": "tumor growth after drug withdrawal", "setting": "[5]; 1 mg/kg group, 14 days withdrawal observation", "value": "continued to grow"}, {"measurement": "TGI", "setting": "[5]; 1 mg/kg once a day", "value": 47.14, "unit": "%"}, {"measurement": "tumor volume after drug withdrawal", "setting": "[5]; 10 mg/kg group, 14 days withdrawal observation", "value": "consistently smaller than the tumor volume at the time of grouping"}, {"measurement": "TGI", "setting": "[5]; 10 mg/kg once a day", "value": 111, "unit": "%"}, {"measurement": "body weight of the animals", "setting": "[5]; 1 or 10 mg/kg once a day", "value": "no significant decrease in the body weight"}, {"measurement": "efficacy in inhibiting tumor growth", "setting": "[5]; mouse MDA-MB-436 model", "value": "good efficacy in inhibiting tumor growth and inducing tumor regression"}, {"measurement": "tolerability", "setting": "[5]; mouse MDA-MB-436 model", "value": "well tolerated"}]}]}
